Calls of active or inactive are those of the source. The calls are words filed in the database; no cut-off is given here.
Legend:
Bacteria [1] = test: Binding affinity to His-tagged LptC (unknown origin) extracted from Escherichia coli BL21 (DE3) cells by BLI analysis
Escherichia coli [2] = test: Antibacterial activity against Escherichia coli ATCC 25922 assessed as bacterial killing at 100 microg/ml measured within 4 to 12 hrs by time-kill kinetics analysis; type: functional; conditions: dose 100 µg/ml; time 4-12 hrs
Cell membrane = test: Disruption of outer membrane integrity in Escherichia coli ATCC 25922 assessed as increase in EtBr uptake by fluorescence plate reader analysis
Escherichia coli [3] = test: Antibacterial activity against Escherichia coli ATCC 25922 infected in Galleria mellonella larvae assessed as survival rate of larvae at 50 microg/ml relative to control; type: functional
Escherichia coli [4] = test: Synergistic antibacterial activity against Escherichia coli ATCC 25922 infected in Galleria mellonella larvae assessed as survival rate of larvae at 50 microg/ml in presence of polymyxin B relative to control; type: functional
Acinetobacter baumannii [5] = test: Antibacterial activity against Acinetobacter baumannii ATCC 19606 infected in Galleria mellonella larvae assessed as survival rate of larvae at 50 microg/ml measured after 96 hrs relative to control; type: functional
Acinetobacter baumannii [6] = test: Synergistic antibacterial activity against Acinetobacter baumannii ATCC 19606 infected in Galleria mellonella larvae assessed as survival rate of larvae at 50 microg/ml measured after 96 hrs in presence of polymyxin B relative to control; type: functional
Lipopolysaccharide (LPS) [7] = test: Binding affinity to LPS (unknown origin) by BLI analysis; conditions: dose 3.13-25 µg/ml
Lipopolysaccharide (LPS) [8] = test: Binding affinity to LPS (unknown origin) assessed as dissociation constant by BLI analysis
Lipopolysaccharide (LPS) [9] = test: Binding affinity to LPS (unknown origin) assessed as exothermic heat release at 100 mM by ITC analysis; conditions: time <= 40.0 min
Bacteria [10] = test: Inhibition of His-tagged His-tagged LptA/LptC (unknown origin) protein-protein interaction extracted from Escherichia coli BL21 (DE3) cells by BLI analysis; conditions: dose 0.39-1.56 µg/ml

SMILES | Activity (Bacteria [1]) | Activity (Escherichia coli [2]) [%] | Activity (Cell membrane) | survival at 50 µg/mL (Escherichia coli [3]) [%] | survival at 50 µg/mL (Escherichia coli [4]) [%] | survival at 50 µg/mL (Acinetobacter baumannii [5]) [%] | survival at 50 µg/mL (Acinetobacter baumannii [6]) [%] | Activity (Lipopolysaccharide (LPS) [7]) | Kd (Lipopolysaccharide (LPS) [8]) [µM] | Activity (Lipopolysaccharide (LPS) [9]) | inhibition (Bacteria [10])
CN1CCOc2cc(/C=C/c3cc(C(C)(C)C)[o+]c(C(C)(C)C)c3)ccc21.O=S(=O)([O-])C(F)(F)F | inactive |  |  |  |  |  |  |  |  |  | 
CC(C)(C)c1cc(/C=C/c2ccc(N3CCCC3)cc2)cc(C(C)(C)C)[o+]1.O=S(=O)([O-])C(F)(F)F |  | 100 | Dose-dependent-effect |  |  |  |  |  |  |  | 
CCN(CC)c1ccc(/C=C/c2cc(C(C)(C)C)[o+]c(C(C)(C)C)c2)cc1.O=S(=O)([O-])C(F)(F)F |  | 100 | Dose-dependent-effect | 20 | 70 | 10 | 80 | Dose-dependent-effect | 4 | Time-dependent-effect | Dose-dependent-effect
